Test systems include UACC-257 melanoma; SK-OV-3 ovarian; M14 melanoma; KM12 colon; OVCAR-8 ovarian; UACC-62 melanoma; HCT-116 colon; U251 CNS; HOP-62 NSCLC; CCRF-CEM leukemia.
What all share (assay): DTP human tumour cell line panel, 48 h

Each structure is given as a SMILES string.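 48-hour exposure; five concentrations; linearly interpolated endpoints. The concentration for 50% growth inhibition is given as GI50. TGI: concentration producing complete growth inhibition.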 Bounds are passed on as bounds.

For orientation: GI50 means the concentration giving 50% growth inhibition. In general, TGI refers to the concentration giving total growth inhibition. A higher TGI goes with less potent growth arrest. For `O=C([CH-]C(=O)c1ccccc1)c1ccccc1.O=C([CH-]C(=O)c1ccccc1)c1ccccc1.O=C([CH-]C(=O)c1ccccc1)c1ccccc1.[Cl-].[Hf+4]`, the GI50 was 22.2 µM in the test with UACC-257 melanoma; 22.7 µM in the test on SK-OV-3 ovarian; 13.5 µM in the test with M14 melanoma; 21.1 µM in the test with KM12 colon; 11.5 µM in the test on OVCAR-8 ovarian; 14.6 µM in the test on UACC-62 melanoma. Besides, the GI50 with HCT-116 colon is 7.33 µM; in the test on U251 CNS it was 19.1 µM. Besides, the TGI with UACC-257 melanoma was 69.5 µM; with SK-OV-3 ovarian, 62.3 µM; in the test on M14 melanoma, 32.9 µM; with KM12 colon, over 100 µM; in the test with OVCAR-8 ovarian, 77.7 µM; in the test on UACC-62 melanoma, over 100 µM. The TGI in the test with HCT-116 colon was 26.1 µM; with U251 CNS, over 100 µM.
For `Cc1cc2c(cc1Cl)SC(c1ccccc1O)NS2(=O)=O` (centres undefined), the TGI was over 100 µM in the test on UACC-257 melanoma; over 100 µM in the test with SK-OV-3 ovarian; over 100 µM in the test on M14 melanoma; over 100 µM in the test on HOP-62 NSCLC; over 100 µM in the test on KM12 colon; 26.3 µM in the test with CCRF-CEM leukemia. Further, the TGI in the test on OVCAR-8 ovarian, in the test with UACC-62 melanoma, with HCT-116 colon and in the test on U251 CNS was over 100 µM each time.
For the molecule `N#Cc1c(-c2ccc(Cl)cc2)c2c([nH]c1=O)-c1cc([N+](=O)[O-])ccc1CCC2`, the total growth inhibition concentration (TGI) with UACC-257 melanoma was 57 µM; in the test with SK-OV-3 ovarian it was over 100 µM; in the test with M14 melanoma it was 73.4 µM; with HOP-62 NSCLC, 45.9 µM; with KM12 colon, 55.5 µM; in the test with CCRF-CEM leukemia, over 100 µM. The TGI in the test with OVCAR-8 ovarian was determined as 50.8 µM; in the test on UACC-62 melanoma it was 32.4 µM; with HCT-116 colon it was 31.9 µM; with U251 CNS, 41.6 µM.
As to `O=S(=O)(O)c1ccc2c(N=Nc3ccccc3)c(O)ccc2c1`, the TGI in the test on UACC-257 melanoma, in the test on SK-OV-3 ovarian, with M14 melanoma, with HOP-62 NSCLC, with KM12 colon and with CCRF-CEM leukemia was over 100 µM in each case. Further, the TGI with OVCAR-8 ovarian, with UACC-62 melanoma, with HCT-116 colon and with U251 CNS was over 100 µM in each case.
As to `COc1ccc(N=Nc2c(N)nn(C)c2N)cc1`, the TGI in the test on UACC-257 melanoma, with SK-OV-3 ovarian, with M14 melanoma, with HOP-62 NSCLC, in the test with KM12 colon and in the test on CCRF-CEM leukemia was over 100 µM each time. Besides, the TGI with OVCAR-8 ovarian, with UACC-62 melanoma, with HCT-116 colon and with U251 CNS was over 100 µM in each case.
As to `CCCCCCCCCCCCSC(=S)c1c(C)[nH]n(CCCCCCCCCCCC)c1=O`, the TGI with UACC-257 melanoma, with SK-OV-3 ovarian, with HOP-62 NSCLC, with KM12 colon, in the test with CCRF-CEM leukemia and with OVCAR-8 ovarian was over 100 µM in each case. In addition, the TGI with UACC-62 melanoma, in the test with HCT-116 colon and with U251 CNS was over 100 µM throughout.
In the case of `CCN(CCO)CCNc1ccc(C)c2sc3ccccc3c(=O)c12`, the TGI in the test on UACC-257 melanoma turned out to be 6.16 µM; with SK-OV-3 ovarian it was 18.1 µM; with M14 melanoma it was 3.23 µM; with HOP-62 NSCLC it was 11 µM; in the test with KM12 colon, 11.2 µM; with CCRF-CEM leukemia it was 27.6 µM. In addition, the total growth inhibition concentration (TGI) with OVCAR-8 ovarian is 14.2 µM; in the test with UACC-62 melanoma, 3.34 µM; with HCT-116 colon it was 7.76 µM; in the test with U251 CNS, 12.4 µM.
Regarding `COP(=O)(OC)[C@H](O)[C@H]1C[C@@H]1c1ccccc1`, the TGI in the test with UACC-257 melanoma, in the test on SK-OV-3 ovarian, in the test with M14 melanoma, with HOP-62 NSCLC, with KM12 colon and in the test with OVCAR-8 ovarian was over 100 µM each time. Moreover, the TGI with UACC-62 melanoma and in the test with U251 CNS was over 100 µM in each case.
As to `O=C(CSSCC(=O)OCCS(=O)(=O)Nc1ccc(Br)cc1)OCCS(=O)(=O)Nc1ccc(Br)cc1`, the concentration for total growth inhibition (TGI) with UACC-257 melanoma was 44.6 µM; with SK-OV-3 ovarian, 89.8 µM; in the test with M14 melanoma it was 39.1 µM; with KM12 colon, 30 µM; in the test with CCRF-CEM leukemia, over 100 µM; in the test on OVCAR-8 ovarian, 45.2 µM. The TGI in the test on UACC-62 melanoma is 34.6 µM; in the test with U251 CNS it was over 100 µM.
As to `CCOC(=O)/C(=C\NC(C)(C)CO)c1nc2ccccc2[nH]1`, the TGI in the test on UACC-257 melanoma, in the test on SK-OV-3 ovarian, in the test on M14 melanoma, with HOP-62 NSCLC, in the test on KM12 colon and in the test on CCRF-CEM leukemia was over 100 µM throughout. In addition, the TGI with OVCAR-8 ovarian, in the test with UACC-62 melanoma and with HCT-116 colon was over 100 µM in each case.
Turning to `CN1NC(c2ccccc2)=C(C#N)C(=O)CC1c1ccc(F)cc1` (centres undefined), the TGI in the test on UACC-257 melanoma, in the test with SK-OV-3 ovarian, in the test on KM12 colon, in the test on CCRF-CEM leukemia, in the test on HCT-116 colon and in the test with U251 CNS was over 100 µM in each case.
For `O=C(NC(Cc1ccc(Cl)cc1)C(=O)O)c1ccc(I)cc1` (centres undefined), the TGI in the test on UACC-257 melanoma, in the test on SK-OV-3 ovarian, with HOP-62 NSCLC, in the test on KM12 colon, in the test with CCRF-CEM leukemia and in the test on OVCAR-8 ovarian was over 100 µM each time. Also, the TGI in the test with UACC-62 melanoma, with HCT-116 colon and in the test on U251 CNS was over 100 µM throughout.
For `Cc1ccc2c3c1[C@@H]1O[C@@H]1c1cccc(c1-3)[C@@H]1O[C@H]21`, the TGI in the test on UACC-257 melanoma came to 33 µM; with SK-OV-3 ovarian it was 63.9 µM; in the test on M14 melanoma it was 25.1 µM; with HOP-62 NSCLC, 32 µM; in the test with KM12 colon it was 28.8 µM; with OVCAR-8 ovarian it was 40.5 µM. Moreover, the TGI amounted to 40.2 µM with UACC-62 melanoma, 27.7 µM in the test on HCT-116 colon and 28.9 µM with U251 CNS.

For the origin of these results see PubChem BioAssay (NCI).
